Data: patent US7062219B2, “Protein fragment complementation assays for high-throughput and high-content screening” (Odyssey Thera Inc., priority 1997, dated 2006)
“Also recorded” adds a separate entry of the source. Non-standard residues stand in square brackets, D forms with d. Residues, ends and D or L forms follow the SMILES beside them. Nle = CCCC[C@H](N)C(=O)O

What was measured:
IkBa/Ubiquitin complexes = assay: IkBa/ubiquitin YFP PCA in HEK293T cells; type: cell-based; details: TNF induced HEK293T cells, ALLN versus vehicle
Method: IkBa-YFP[1] and YFP[2]-ubiquitin were constructed as described above and transiently expressed in HEK293T cells. […] The present invention can be applied to the large-scale identification of proteins modified by ubiquitin and ubiquitin-like polypeptides; for example, using library screening as in Example 2 of the present invention where the ‘bait’ is ubiquitin or a ubiquitin-like molecule, or by using interaction mapping as in Example 4 where ubiquitin or a ubiquitin-like molecule is tested against individual cDNAs to identify ubiquitin-protein complexes. In addition, by constructing ubiquitin PCAs for specific protein targets, the assays that are the subject of the present invention can immediately be applied to high-throughput screening for novel therapeutic agents.

p65/p50 complex = assay: DHFR PCA for NFkB (p65/p50) translocation in CHO DUKXB11 cells; type: cell-based, mouse and human; details: 40 micrograms/ml ALLN
Method: Coding regions of NFkB subunits p65 and p50 (corresponding to N-terminal 436 amino acids) were PCR amplified from mouse and human cDNAs, respectively, and ligated in-frame downstream of a 15 amino acid flexible linker (GGGGS)3 (SEQ ID No.30) followed by DHFR fragment F[1,2] or F[3] in pCDNA3.1zeo (Invitrogen). IkBa was subcloned separately into pCDNA3.1. For transient expression of these genes, 8×10e4 DHFR-deficient CHO DXB11 cells were seeded into 12 well plates and transfected 24 hours later with [F1,2]-p65, [F3]-p50, and IkBa at the molar ratio of 1:1:1 for each fusion construct using Fugene (Boehringer Mannheim) according to manufacturer's instructions. For controls, where indicated, empty pCDNA3.1 was used in place of IkBa. A total of 1 microgram of DNA was used per well.
Forty-eight hours post-transfection, complexes of F[1,2]-p65 and [F3]-p50 were detected by fluorescence microscopy. […]
To examine the effect of proteasome inhibition on NFkB nuclear translocation, the transiently transfected cells expressing the DHFR PCA were treated with 40 micrograms/ml ALLN (Calbiochem) for 1 hr prior to TxR-MTX labeling and for the subsequent duration of the experiment. The cells were rinsed with PBS and the subcellular location of NFkB complexes were visualized using a Nikon Eclipse TE2000 fluorescence microscope at excitation and emission wavelengths of 580 nm and 625 nm, respectively. […]

p50/p65 complex = assay: stable HEK293T p50/p65 YFP PCA cell line, nuclear translocation (N:C ratio); type: cell-based
Method: Stable cell lines represent the gold standard for HTS since the assays can be reconstructed at any time from frozen stocks of cells. […] First, cells were co-transfected with YFP[2]-p65 encoding vectors, and stable cell lines were selected using 100 micrograms/ml of Hygromycin B (Invitrogen). Selected cell lines were then transfected with YFP[1]-p50. Stable cell lines expressing YFP[1]-p50/YFP[2]-p65 were isolated following double antibiotic selection with 50 μg/ml Hygromycin B and 500 μg/ml Zeocin. Cell clones stably expressing the fusion genes were identified by immunoblot analysis and fluorescence microscopy. A single cell line of each transfectant was selected for further characterization. Fluorescence of these lines is stable over at least 25 passages (data not shown). A stable, MEK/ERK cell line—constructed as described below—was used as a control for TNF effects. Fugene 6 (Roche) was used for all the transfections according to manufacturer's directions. Cells stably expressing YFP[1]-p50/YFP[2]-p65 were seeded at 20,000 cells/well in black-walled poly-lysine coated 96 well plate (Greiner). Twenty-four hours later, the cells were incubated with human TNF-alpha (Roche) for 30 min. Nuclei were stained with Hoechst 33342 (Molecular Probes) at 10 micrograms/ml for 10 min. Cells were rinsed with HBSS (Invitrogen) and kept in the same buffer. Fluorescence was visualized and images were acquired using a Discovery-1 automated fluorescence imager (Molecular Devices, Inc.) equipped with excitation and emission filters 470/35 and 535/60, respectively. […] For the high throughput screening campaign described below, cells were pretreated with compounds (10 micromolar) for 60 minutes and then stimulated with TNFalpha for 30 minutes in the presence of drugs. Cells were then fixed with 2% formaldehyde in HBSS and subsequently stained with Hoechst 33342. All liquid handling was done using a Biomek FX (Beckman) instrument and images were acquired as described above. Images were analyzed using Image J. Translocation is assessed by calculating the nuclear/cytoplasmic ratio of the mean fluorescence intensity for a population of cells (denoted as n) over several images for a given condition.
Genesis Plus is a collection of 960 diverse compounds, and includes compounds with known toxicity or fluorescent properties. Inclusion of compounds with such properties is important in HTS assay validation, as they might complicate analysis. The final concentration of compounds in wells was 10 micromolar, and all wells contained 0.5% DMSO concentration. […] Following fixation and staining of nuclei, fluorescence was analyzed on the automated fluorescent microscopy platform (Discovery 1; Universal Imaging/Molecular Devices Corp.). […]

CCCC[C@@H](C=O)NC(=O)[C@H](CC(C)C)NC(=O)[C@H](CC(C)C)NC(C)=O [ALLN] (Ac-Leu-Leu-[Nle]-aldehyde)
mean fluorescence intensity of ubiquitin-IkBa complexes (IkBa/Ubiquitin complexes): increases the accumulation; also recorded: significantly increased | effect on TNF-induced cytoplasmic-to-nuclear translocation of NFkB complexes in DHFR PCA (p65/p50 complex): inhibition of the nuclear translocation; also recorded: inhibits | block of TNF-induced increases in the N:C ratio of p50/p65 complexes (p50/p65 complex; ALLN treatment for 4 hr): 76% | effect on the TNF response in the stable p65/p50 PCA cell line (in words) (p50/p65 complex; FIG. 12(B)): inhibition of the TNF response
